# Values joined by “and” are separate entries in the source; they are usually repeats but may differ in a detail not shown here. Identical values can stand only once. Like-named read-outs stand apart in the source and are kept apart here. *1 amine or outer side, *2 acyl side, *3 side chain or, on linkers, in order; H or OH if unused. Where a SMILES comes first, the peptide text is derived from it. Bridges are numbered along the chain shown (N, C = ends). [ ]: non-standard residue; d: D form. The star is where a group is joined. Leu(3R-OH,Nα-propionyl) = CCC(=O)N[C@H](C(=O)*)[C@H](O)C(C)C; X1 = CC(C)[C@@H](O[*:3])[C@H](N[*:1])C(=O)[*:2]; NMeT = CN[C@H](C(=O)O)[C@@H](C)O; dPhLac = O=C(O)[C@H](O)Cc1ccccc1; NMeA = CN[C@@H](C)C(=O)O; NMeDha = C=C(NC)C(=O)O
# Legend:
# HepG2 cells [1] = experiment: Label-free cellular impedance assay (xCELLigence) in HepG2 cells; type: cell-based, human; conditions: for effect of signaling pathway inhibitor pretreatment on the impedance response to lodoxamide: HepG2 cells, FR900359 1 × 10^–7 M, Pertussis toxin 100 ng/mL, Y27632 1 × 10^–5 M
# Procedure: HepG2 cells were seeded onto xCELLigence E plates (2 × 10^4 cells/well) and incubated for 24 h at 37 °C. To evaluate GPR35 activation and its downstream G protein signaling, HepG2 cells or primary mouse hepatocytes were exposed to GPR35 antagonists or G protein inhibitors 1 h (overnight for Pertussis toxin) prior to GPR35 agonist stimulation. After the addition of GPR35 agonist or vehicle control, the impedance (represented as “cell index”) was recorded every 30 s over a 2 h period using xCELLigence RTCA (Agilent). Each experiment was repeated at least three times.
# [2] = tested on: hepatocytes from GPR35 knock-out mice; experiment: Oil Red O lipid accumulation in hepatocytes from GPR35 knock-out mice
# Procedure: (§1) All mice were bred as WT or homozygous onto a C57BL/6N background. Animals were cared for in accordance with national guidelines on animal experimentation. All animal experiments were conducted under a home office license held by the authors. WT, humanized GPR35a, or KO male mice at 3–4 months of age were used in this study. These mice were fed ad libitum with a standard mouse chow diet. Briefly, mouse primary hepatocytes were isolated using a two-step collagenase perfusion technique.[45] Twelve-well plates or xCELLigence E plates were coated with rat tail collagen I solution (Thermo Fisher Scientific) overnight at 37 °C and washed with PBS. […] After each drug treatment, hepatocytes were stained with Oil Red O and quantified as described. […]
# (§2) Lipid accumulation was measured by Oil Red O staining. […] After PBS washing, Oil Red O was extracted from cells using 150 μl of isopropanol and OD510 nm measured. […] These cells were then stained with Hoechst 33342 (1 μg/mL) and the fluorescence intensity of Hoechst (represents the DNA content in cells) was measured using a CLARIOstar plate reader (BMG LABTECH). Oil Red O accumulation was corrected for differences in DNA content and expressed as relative absorbency, taking the control condition (treated with vehicle only) as 1.
# mouse GPR35 = mouse GPR35 (Mus musculus, UniProt Q9ES90); experiment: β-arrestin-based interaction assay, agonist potency at mouse GPR35; type: cell-based
# mouse GPR35, sequence (Q9ES90 whole entry): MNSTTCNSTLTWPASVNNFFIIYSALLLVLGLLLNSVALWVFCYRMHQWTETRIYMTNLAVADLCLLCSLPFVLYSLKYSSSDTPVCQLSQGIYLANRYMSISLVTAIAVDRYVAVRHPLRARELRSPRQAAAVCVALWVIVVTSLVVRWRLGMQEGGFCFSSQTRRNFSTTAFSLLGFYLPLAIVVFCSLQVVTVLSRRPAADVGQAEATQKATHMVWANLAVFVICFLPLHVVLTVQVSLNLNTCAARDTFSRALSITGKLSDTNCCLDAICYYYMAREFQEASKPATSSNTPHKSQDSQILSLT
# human GPR35a = human GPR35a (Homo sapiens, UniProt Q9HC97); experiment: β-arrestin-based interaction assay, agonist potency at human GPR35a; type: cell-based
# human GPR35a, sequence (Q9HC97 whole entry): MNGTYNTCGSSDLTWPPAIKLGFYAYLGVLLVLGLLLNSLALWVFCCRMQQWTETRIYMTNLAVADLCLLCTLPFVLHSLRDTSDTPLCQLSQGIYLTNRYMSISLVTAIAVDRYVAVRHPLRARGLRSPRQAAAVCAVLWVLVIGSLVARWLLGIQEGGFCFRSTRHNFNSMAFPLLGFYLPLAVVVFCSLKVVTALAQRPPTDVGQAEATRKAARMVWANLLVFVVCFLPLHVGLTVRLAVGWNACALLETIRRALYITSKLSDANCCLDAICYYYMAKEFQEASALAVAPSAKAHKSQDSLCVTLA
# [3] = tested on: hepatocytes from wild-type mice; experiment: Oil Red O lipid accumulation in hepatocytes from wild-type mice; type: cell-based, mouse; conditions: 48 h; for EC50: hepatocytes from wild-type mice, co-incubation with T0901317 5 × 10^–6 M, read-out: EC50 for suppression of LXR-mediated lipid accumulation
# Procedure: as §1, with “PBS. Isolated primary hepatocytes were seeded onto 12-well plates (8 × 10^4 cells/well) or xCELLigence E plates (2 × 10^4 cells/well) in Wiliam’s E medium (Thermo Fisher Scientific) supplemented with 10% fetal bovine serum (FBS) and 1× penicillin/streptomycin. Cells were maintained for 7 days with a fresh medium change every other day. […] Human GPR35 activation was examined using xCELLigence RTCA assay. To access the impact of GPR35 agonists on the lipid accumulation, WT and humanized GPR35 hepatocytes were incubated with T0901317 and/or GPR35 agonists/antagonists, as indicated (in DMEM medium containing 5% FBS and 1.5% BSA) for 48 h. Alternatively, GPR35 KO hepatocytes were incubated with drugs, as indicated for 5 days.” for “PBS.”
# as §2
# [4] = tested on: hepatocytes from hGPR35a-HA-expressing mice; experiment: Oil Red O lipid accumulation in hepatocytes from hGPR35a-HA-expressing mice; type: cell-based, mouse; conditions: T0901317 8 × 10^–6 M
# Procedure: All mice were bred as WT or homozygous onto a C57BL/6N background. Animals were cared for in accordance with national guidelines on animal experimentation. All animal experiments were conducted under a home office license held by the authors. WT, humanized GPR35a, or KO male mice at 3–4 months of age were used in this study. These mice were fed ad libitum with a standard mouse chow diet. Briefly, mouse primary hepatocytes were isolated using a two-step collagenase perfusion technique.[45] Twelve-well plates or xCELLigence E plates were coated with rat tail collagen I solution (Thermo Fisher Scientific) overnight at 37 °C and washed with PBS. Isolated primary hepatocytes were seeded onto 12-well plates (8 × 10^4 cells/well) or xCELLigence E plates (2 × 10^4 cells/well) in Wiliam’s E medium (Thermo Fisher Scientific) supplemented with 10% fetal bovine serum (FBS) and 1× penicillin/streptomycin. Cells were maintained for 7 days with a fresh medium change every other day. […] Human GPR35 activation was examined using xCELLigence RTCA assay. To access the impact of GPR35 agonists on the lipid accumulation, WT and humanized GPR35 hepatocytes were incubated with T0901317 and/or GPR35 agonists/antagonists, as indicated (in DMEM medium containing 5% FBS and 1.5% BSA) for 48 h. Alternatively, GPR35 KO hepatocytes were incubated with drugs, as indicated for 5 days. In the T0901317 pretreatment model, human GPR35 hepatocytes were stimulated with T0901317 for 2 days and then further treated with lodoxamide for a further 3 days. After each drug treatment, hepatocytes were stained with Oil Red O and quantified as described. Each experiment was repeated at least three times.
# Lipid accumulation was measured by Oil Red O staining. A working solution of Oil Red O was prepared, as described with modification.[46] After drug treatment, cells were washed with PBS and fixed with formalin solution for 1 h at 4 °C. Then, cells were stained with Oil Red O working solution for 10 min at room temperature. After PBS washing, Oil Red O was extracted from cells using 150 μl of isopropanol and OD510 nm measured. After the lipid extraction, cells were further soaked in PBS overnight at 4 °C. These cells were then stained with Hoechst 33342 (1 μg/mL) and the fluorescence intensity of Hoechst (represents the DNA content in cells) was measured using a CLARIOstar plate reader (BMG LABTECH). Oil Red O accumulation was corrected for differences in DNA content and expressed as relative absorbency, taking the control condition (treated with vehicle only) as 1.
# [5] = tested on: GPR35 knock-out clones of HepG2 cells; experiment: Oil Red O lipid accumulation in GPR35 knock-out clones of HepG2 cells; type: cell-based, human; conditions: T0901317 4 × 10^–6 M, 48 h, higher baseline
# Procedure: Human hepatocellular carcinoma HepG2 cells were grown in Minimum Essential Medium (MEM) supplemented with 10% fetal bovine serum (FBS), 2 mM L-glutamine, 1× non-essential amino acid, 1 mM sodium pyruvate, and 1× penicillin/streptomycin. Materials for cell culture were all from Sigma-Aldrich (St. Louis, MO) or Thermo Fisher Scientific (Waltham, MA). Cells were incubated in a humidified CO2 incubator at 37 °C. Experiments were performed when cell confluence reached 80%. Cells were seeded onto a 12-well plate (1 × 10^5 cells/well) for 24 h prior to drug treatment. […] Expression of full-length mRNA from the GPR35 gene was eliminated using a dual synthetic gRNA/RNP approach[43] with one guide cutting the intron and one in the exon region to generate a nonfunctional GPR35 protein. The gRNAs were designed with the CRISPR Finder (Welcome Sanger Institute). […] Transfected cells were plated and analyzed for editing efficiency 24-48 h after electroporation. […] To further quantify and capture the genomic DNA deletion, PCR primers listed in Table S1 were designed to amplify the genomic DNA surrounding the target site. […] The amplified PCR products were subjected to paired-end sequencing using NextSeq500 from Illumina using paired-end chemistry with a 150-bp read length. […] The impedance was recorded using xCELLigence RTCA. […] Lipid accumulation was measured by Oil Red O staining.
# HepG2 cells [6] = experiment: Oil Red O staining of LXR (T0901317)-induced lipid accumulation in HepG2 cells; type: cell-based, human; conditions: 4 × 10^–6 M, 48 h
# Procedure: Human hepatocellular carcinoma HepG2 cells were grown in Minimum Essential Medium (MEM) supplemented with 10% fetal bovine serum (FBS), 2 mM L-glutamine, 1× non-essential amino acid, 1 mM sodium pyruvate, and 1× penicillin/streptomycin. Materials for cell culture were all from Sigma-Aldrich (St. Louis, MO) or Thermo Fisher Scientific (Waltham, MA). Cells were incubated in a humidified CO2 incubator at 37 °C. […] Cells were seeded onto a 12-well plate (1 × 10^5 cells/well) for 24 h prior to drug treatment. […] Lipid accumulation was measured by Oil Red O staining.
# [7] = tested on: GPR35 genome-edited HepG2 clones; experiment: Label-free cellular impedance assay in GPR35 genome-edited HepG2 clones 19 and 27; type: cell-based, human
# Excerpt: Expression of full-length mRNA from the GPR35 gene was eliminated using a dual synthetic gRNA/RNP approach[43] with one guide cutting the intron and one in the exon region to generate a nonfunctional GPR35 protein. The gRNAs were designed with the CRISPR Finder (Welcome Sanger Institute). HepG2 cells were transfected with the Neon Transfection System from Thermo Fisher Scientific (Waltham, MA), according to the manufacturer’s instructions. Briefly, CrRNA and tracrRNA were annealed to gRNA at 95 °C for 5 min. Next, cells were transfected with gRNA, Cas9, and the electroporation enhancer, according to the manufacturer’s instructions. All crRNAs, tracrRNA, SpCas9 nuclease, and the electroporation enhancer were purchased from Integrated DNA Technologies (Coralville, IA). Transfected cells were plated and analyzed for editing efficiency 24–48 h after electroporation. Single-cell clones were generated by single-cell FACS sorting. Clones were expanded and to access editing efficiency, genomic DNA from cell clones was extracted and subjected to PCR to confirm the genome deletion. To further quantify and capture the genomic DNA deletion, PCR primers listed in Table S1 were designed to amplify the genomic DNA surrounding the target site. The PCR primers were linked to the sequences of the Illumina Nextera adapters. The amplified PCR products were subjected to paired-end sequencing using NextSeq500 from Illumina using paired-end chemistry with a 150-bp read length. In addition, mRNA from KO clones was isolated and subjected to RT-PCR. To further confirm the abrogation of GPR35 activation in CRISPR KO clones, KO cells were seeded onto xCELLigence E plates (2 × 10^4 cells/well) for 24 h at 37 °C prior to the treatment of GPR35 agonists. The impedance was recorded using xCELLigence RTCA. […]
# HepG2 cells were seeded onto xCELLigence E plates (2 × 10^4 cells/well) and incubated for 24 h at 37 °C. […] After the addition of GPR35 agonist or vehicle control, the impedance (represented as “cell index”) was recorded every 30 s over a 2 h period using xCELLigence RTCA (Agilent). […]
compound,measurement,setting,value
C[C@@H](N)[C@H]1CC[C@H](C(=O)Nc2ccncc2)CC1 [Y27632],effect of signaling pathway inhibitor pretreatment on the impedance response to lodoxamide,HepG2 cells [1],all but eliminated
"CCCCc1cc2c(=O)cc(C(=O)O)[nH]c2c2c(=O)cc(C(=O)O)[nH]c12 [bufrolin, 6-butyl-4,10-dioxo-1,7-dihydro-1,7-phenanthroline-2,8-dicarboxylic acid]",suppression of lipid accumulation induced by T0901317 in hepatocytes from GPR35 knock-out mice,[2]; treatment for 5 days,did not suppress lipid accumulation
same,fold more potent than lodoxamide at mouse GPR35,mouse GPR35; bufrolin versus lodoxamide,more than 10 fold
same,fold lower potency at mouse GPR35 than at human GPR35,mouse GPR35; mouse versus human GPR35,~10 fold
same,EC50,mouse GPR35; read-out: EC50 at the mouse GPR35,< 100 nM
same,EC50,"mouse GPR35; β-arrestin-based interaction assay, read-out: mouse GPR35, pEC50 (converted)",155 nM
same,ratio (log) (H/M),human GPR35a; log ratio of potency at human GPR35a over mouse GPR35,1.02 ± 0.06
same,EC50,"human GPR35a; β-arrestin-based interaction assay, read-out: human GPR35a, pEC50 (converted)",14.8 nM
same,EC50,"[3]; Mus musculus, Hepatocyte",78.7 nM
same,EC50,[3],79 nM and ~80 nM
"O=S(=O)(c1ccccc1)N(CC(F)(F)F)c1ccc(C(O)(C(F)(F)F)C(F)(F)F)cc1 [T0901317, N-(2,2,2-trifluoroethyl)-N-[4-[2,2,2-trifluoro-1-hydroxy-1-(trifluoromethyl)ethyl]phenyl]benzenesulfonamide]",lipid accumulation (Oil Red O) in hepatocytes from hGPR35a-HA-expressing mice,[4],clear increase in lipid accumulation
same,effect of T0901317 on lipid accumulation in hepatocytes from GPR35 knock-out mice,[2]; equivalent time of exposure as in wild-type hepatocytes (48 h),modest
same,lipid accumulation in mouse hepatocytes,"[3]; wild-type mice, 5 × 10^–6 M",able to promote lipid accumulation
same,lipid accumulation on LXR activation in GPR35 knock-out clones,[5],still able to promote lipid accumulation
same,deposition of triglycerides and other lipids (Oil Red O),HepG2 cells [6],substantially increased
"C=C1C(=O)N[C@@H](C)C(=O)N(C)[C@@H](C)C(=O)N[C@@H]([C@H](OC(=O)[C@@H](NC(=O)CC)[C@H](O)C(C)C)C(C)C)C(=O)N(C)[C@@H]([C@@H](C)OC)C(=O)O[C@H](C(C)C)[C@H](NC(C)=O)C(=O)O[C@H](Cc2ccccc2)C(=O)N1C [FR900359] (Ac-[X1][dPhLac][NMeDha]A[NMeA][X1](Leu(3R-OH,Nα-propionyl))[NMeT](Me); ester 1-C)",effect of signaling pathway inhibitor pretreatment on the impedance response to lodoxamide,HepG2 cells [1],without effect
CCCOc1ccccc1-c1nc2nn[nH]c2c(=O)[nH]1 [zaprinast],impedance signal in GPR35 genome-edited clones 19 and 27,[7]; 1 × 10^–5 M,not in either clone 19 or 27
same,impedance signal in parental HepG2 cells,HepG2 cells [1]; 1 × 10^–5 M,produced positive signals
same,EC50,mouse GPR35,661 nM
Nc1ncnc2c1ncn2[C@@H]1O[C@H](COP(=O)(O)OP(=O)(O)OP(=O)(O)O)[C@@H](O)[C@H]1O [ATP],impedance response to ATP in wild-type HepG2 cells and GPR35 genome-edited clones,"[7]; P2Y purinoceptor stimulus, control of responsiveness",enhanced electrical conductance
Pertussis toxin,effect of signaling pathway inhibitor pretreatment on the impedance response to lodoxamide,HepG2 cells [1],small although a statistically nonsignificant reduction
